The values below come from patent publication US20220233550A1, “PARP INHIBITOR PELLET PREPARATION AND PREPARATION PROCESS THEREFOR” (BEIGENE, LTD., priority 2019, published 2022).

One series has as its system PARP. As to conditions: compared with Olaparib and other PARP inhibitors (such as Veliparib); cited from earlier work.
The conditions of series [1]: sesquihydrate; cited from earlier work.
Another series concerns PARP-1/2. The note with it: cited from earlier work.
Another series deals with CYP. The note with it: cited from earlier work.
Series [2] has as its system BRCA variant in vitro xenograft model. As to conditions: vs Olaparib; cited from earlier work.
For series [3] the following is noted: rodents; cited from earlier work.
The conditions of series [4]: cited from earlier work.
A short description of series [5]: Fluidity, judged from electron microscope images. The format is physicochemical. The note with it: electron microscope image, FIG. 1 / FIG. 2. An excerpt:
FIG. 1 of the description is an electron microscope image of the drug substance Pamiparib, and since the drug substance BGB290 contains crystal water, is very easily agglomerated, and has a poor fluidity, which is not conducive to capsule filling, thereby affecting the industrialized mass production of a formulation. In addition, FIG. 2 of the description is an electron microscope image of the pellets of Example 1. It can be seen from the image that the pellets are round in shape, can be evenly spread under the field of view of an electron microscope, and has a good fluidity. It is sufficient to fulfil the filling of the capsule.

The subject of series [6] is cell lines with BRCA1/2 mutations or other HR defects. As to conditions: cited from earlier work.

Consider `C[C@]12CCCN1CC1=NNC(=O)c3cc(F)cc4[nH]c2c1c34` [Pamiparib, (R)-2-fluoro-10a-methyl-7,8,9,10,10a,11-hexahydro-5,6,7a,11-tetraazacyclohepta[def]cyclopenta[a]fluoren-4(5H)-one sesquihydrate], for which the DNA capture activity entry in the series on PARP is recorded as “stronger DNA capture activity”. Also, the chemical stability entry in [1] is “excellent chemical stability”. In the series with PARP-1/2 (compared with Olaparib and other PARP inhibitors (such as Veliparib)), the PARP1/2 selectivity entry is on record as “better PARP1/2 selectivity”. Moreover, the CYP inhibitory activity result with CYP is listed as “no CYP inhibitory activity”. The “activity relative to Olaparib” value in [2] was “about 16 times”. In addition, in series [3], the tolerance result was “good tolerance” and the treatment window result is “about 10 folds”. In [4], the brain permeability result is on record as “significant brain permeability”. Moreover, the fluidity result in series [5] was “poor fluidity”.
`C[C@]12CCCN1CC1=NNC(=O)c3cc(F)cc4[nH]c2c1c34` [drawing 1, (R)-2-fluoro-10a-methyl-7,8,9,10,10a,11-hexahydro-5,6,7a,11-tetraazacyclohepta[def]cyclopenta[a]fluoren-4(5H)-one]: the “selectivity for PARP-1/2” value in the series on PARP-1/2 (free compound of WO 2013/097225A1) was “high selectivity for PARP-1/2”. Besides, in [6], the inhibition of proliferation entry was “can effectively inhibit the proliferation”.
